Source: ChEMBL document CHEMBL5230156, “Chromosome Region Maintenance 1 (XPO1/CRM1) as an Anticancer Target and Discovery of Its Inhibitor” (J Med Chem, 2021)
Each block holds one compound with its values, some of them ahead of it.

Experiments:
SGC-7901 [1] = assay: Growth inhibition of human SGC-7901 cells assessed as inhibition rate at 5 uM relative to control; format: functional
SGC-7901 [2] = assay: Growth inhibition of human SGC-7901 cells assessed as inhibition rate at 100 uM relative to control; format: functional
SGC-7901 [3] = assay: Growth inhibition of human SGC-7901 cells assessed as inhibition rate at 50 uM relative to control; format: functional
SGC-7901 [4] = assay: Growth inhibition of human SGC-7901 cells assessed as inhibition rate at 150 uM relative to control; format: functional
HeLa = assay: Growth inhibition of human HeLa cells measured after 48 hrs by MTT assay; format: functional, cell-based
[5] = Inhibition of HIV Rev activity; set-up: species or system Human immunodeficiency virus
HT-29 = assay: Antiproliferative activity against human HT-29 cells assessed as cell viability measured after 3 hrs by CCK-8 assay; format: functional, cell-based; details: HT-29, 3 h
HCT-15 [6] = assay: Inhibition of colony formation in human HCT-15 cells at 4 uM incubated for 14 days by crystal violet staining based cell clonogenic assay; format: functional; details: HCT-15, 336 h, time 14 day
HCT-15 [7] = assay: Antiproliferative activity against human HCT-15 cells assessed as cell viability measured after 3 hrs by CCK-8 assay; format: functional, cell-based; details: HCT-15, 3 h
HCT-15 [8] = assay: Anticancer activity against human HCT-15 cells assessed as decrease in invading cells at 0.5 uM measured after 36 hrs; format: functional
HCT-15 [9] = assay: Inhibition of colony formation in human HCT-15 cells at 2 uM incubated for 14 days by crystal violet staining based cell clonogenic assay; format: functional; details: HCT-15, 336 h, time 14 day
HCT-15 [10] = assay: Anticancer activity against human HCT-15 cells assessed as decrease in invading cells at 1 uM measured after 36 hrs; format: functional
HCT-15 [11] = assay: Inhibition of colony formation in human HCT-15 cells at 1 uM incubated for 14 days by crystal violet staining based cell clonogenic assay; format: functional; details: HCT-15, 336 h, time 14 day
NSCLC = assay: Antitumor activity against human NSCLC cells; format: functional, cell-based
HCT-15 [12] = assay: Antitumor activity against wild type human HCT-15 cells; format: functional, cell-based
HCT-15 [13] = assay: Antitumor activity against CRM1 knockout human HCT-15 cells; format: functional, cell-based
SMMC-7721 [14] = assay: Antitumor activity against human SMMC-7721 cells measured after 24 hrs; format: functional, cell-based; details: SMMC-7721, 24 h
SMMC-7721 [15] = assay: Antitumor activity against human SMMC-7721 cells measured after 6 hrs; format: functional, cell-based; details: SMMC-7721, 6 h
[16] = Cytotoxicity against human NL9980 cells assessed as inhibition of tumor growth measured after 72 hrs by MTT assay; format: functional, cell-based; details: NL9980, 72 h
[17] = Cytotoxicity against human L9981 cells assessed as inhibition of tumor growth measured after 72 hrs by MTT assay; format: functional, cell-based; details: L9981, 72 h
SMMC-7721 [18] = assay: Antitumor activity against human SMMC-7721 cells measured after 12 hrs; format: functional, cell-based; details: SMMC-7721, 12 h
[19] = Inhibition of nuclear export in human HeLa cells; format: functional, cell-based
SK-N-BE(2) = assay: Antiproliferative activity against human SK-N-BE(2) cells by CCK-8 assay; format: functional, cell-based; details: SKNBE2
SH-SY5Y = assay: Antiproliferative activity against human SH-SY5Y cells by CCK-8 assay; format: functional, cell-based

SMILES: C=C1C(=O)[C@]23[C@H](O)[C@H]1CC[C@H]2[C@@]12CO[C@]3(O)[C@@H](O)[C@@H]1C(C)(C)CC[C@@H]2O [ORIDONIN]
- inhibition at 5 µM (SGC-7901 [1]): 20%
- inhibition at 100 µM (SGC-7901 [2]): 75%
- inhibition at 50 µM (SGC-7901 [3]): 35%
- inhibition at 150 µM (SGC-7901 [4]): 90%

SMILES: CC1=C(C)C(=O)N(Nc2ccc(Cl)c(Cl)n2)C1=O
- IC50 (HT-29): 0.97 µM
- inhibition at 4 µM (HCT-15 [6]): 91.4%
- IC50 (HCT-15 [7]): 1.2 µM
- inhibition at 0.5 µM (HCT-15 [8]): 44%
- inhibition at 2 µM (HCT-15 [9]): 83.2%
- inhibition at 1 µM (HCT-15 [10]): 67%
- inhibition at 1 µM (HCT-15 [11]): 58.5%

SMILES: [O-][S+](/C=C/CCN=C=S)c1cc(C(F)(F)F)cc(C(F)(F)F)c1 (stereo not given)
- IC50 (HCT-15 [12]): 0.151 µM
- IC50 (HCT-15 [13]): 14 µM

SMILES: CC1=CC(=O)c2c(O)cccc2C1=O [PLUMBAGIN]
- IC50 (SMMC-7721 [14]): 2.43 µM
- IC50 (SMMC-7721 [15]): 36.1 µM
- IC50 [16]: 7.5 µM
- IC50 [17]: 9 µM
- IC50 (SMMC-7721 [18]): 5.41 µM

SMILES: CC(C)CCNC/C=C/[S+]([O-])c1cc(C(F)(F)F)cc(C(F)(F)F)c1 (stereo not given)
- EC50 [19]: 3.2 µM

More lines, now with the values ahead:

- IC50 (HeLa): 32.4 µM
SMILES: COc1cc(/C=C/C(=O)CC(=O)/C=C/c2ccc(O)c(OC)c2)ccc1O [CURCUMIN]

- IC50 [5]: 5.5 µM
SMILES: CC1=C(COCCC(C)(C)C)C(=O)N(Nc2ccc(C(F)(F)F)c(Cl)n2)C1=O

- IC50 (NSCLC): 0.025 µM
SMILES: O=C(/C=C\n1cnc(-c2cc(C(F)(F)F)cc(C(F)(F)F)c2)n1)NNc1cnccn1 [SELINEXOR]

- IC50 (SK-N-BE(2)): 1.4 µM
- IC50 (SH-SY5Y): 0.3 µM
SMILES: O=C(/C=C\n1cnc(-c2cc(C(F)(F)F)cc(C(F)(F)F)c2)n1)NNc1ccccn1 [VERDINEXOR]

- IC50 (HeLa): 16.3 µM
SMILES: COc1cc(/C=C/C(=O)N2CCC=CC2=O)cc(OC)c1OC [PIPLARTINE]
